This note sets out measurements from publication PMC11820102, “Molecular Dynamics-Assisted Discovery of Novel Phosphodiesterase-5 Inhibitors Targeting a Unique Allosteric Pocket” (Molecules, 2025).

Test [1] addresses T1, PDE5A1 (Homo sapiens, UniProt O76074). In words: radiometric 3H-cGMP hydrolysis assay, inhibition ratio at […]. On the set-up: gene PDE5A; catalytic domain, amino acids 535–860. The format is biochemical.
The next test has as its target PDE11A (Homo sapiens, UniProt Q9HCR9). In words: radiometric 3H-cAMP/3H-cGMP hydrolysis assay, single concentration. The format is biochemical.
The next test concerns the target PDE10A (Homo sapiens, UniProt Q9Y233). The description is as above. Type of test: biochemical.
For test [2], the target named is T1, PDE5A1. In words: radiometric 3H-cGMP hydrolysis assay, dose-response. Type of test: biochemical. Set-up: gene PDE5A; catalytic domain, amino acids 535–860.
The target of test [3] is T1, PDE5A1. Set-up: gene PDE5A.

Structures are written as SMILES. Where only a bound is given, the exact number is not on record here.

In general, inhibition refers to the share of the control response that was lost under treatment. What is called IC50 is the midpoint of a concentration-inhibition curve.

PDE10A, sequence (Q9Y233 whole entry, the tested form may be a part): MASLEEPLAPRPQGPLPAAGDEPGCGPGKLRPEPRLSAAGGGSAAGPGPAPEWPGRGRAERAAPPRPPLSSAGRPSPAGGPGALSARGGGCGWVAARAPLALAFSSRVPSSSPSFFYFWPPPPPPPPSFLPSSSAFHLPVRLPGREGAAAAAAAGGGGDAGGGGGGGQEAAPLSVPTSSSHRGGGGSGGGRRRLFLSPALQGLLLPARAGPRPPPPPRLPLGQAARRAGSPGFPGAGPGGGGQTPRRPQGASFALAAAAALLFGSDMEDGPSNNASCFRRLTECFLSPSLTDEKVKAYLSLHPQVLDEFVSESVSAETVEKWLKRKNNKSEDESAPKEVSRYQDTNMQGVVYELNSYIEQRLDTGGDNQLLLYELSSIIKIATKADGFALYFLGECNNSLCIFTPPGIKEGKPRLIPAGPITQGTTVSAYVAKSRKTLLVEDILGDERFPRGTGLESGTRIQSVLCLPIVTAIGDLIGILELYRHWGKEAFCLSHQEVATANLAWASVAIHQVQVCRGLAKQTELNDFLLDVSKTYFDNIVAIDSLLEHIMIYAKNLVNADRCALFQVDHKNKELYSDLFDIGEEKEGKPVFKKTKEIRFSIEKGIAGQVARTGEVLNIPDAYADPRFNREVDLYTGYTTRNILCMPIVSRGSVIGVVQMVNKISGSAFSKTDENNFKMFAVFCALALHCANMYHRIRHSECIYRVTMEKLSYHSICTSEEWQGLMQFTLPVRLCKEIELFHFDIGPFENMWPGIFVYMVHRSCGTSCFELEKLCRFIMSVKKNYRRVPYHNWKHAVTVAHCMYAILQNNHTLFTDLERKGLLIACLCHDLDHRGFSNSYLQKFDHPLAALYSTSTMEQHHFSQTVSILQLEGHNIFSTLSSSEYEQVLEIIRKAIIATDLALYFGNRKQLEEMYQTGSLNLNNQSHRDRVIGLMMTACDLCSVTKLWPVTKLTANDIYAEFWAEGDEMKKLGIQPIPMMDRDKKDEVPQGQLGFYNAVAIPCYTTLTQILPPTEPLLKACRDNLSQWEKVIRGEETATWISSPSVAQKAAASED
PDE11A, sequence (Q9HCR9 whole entry): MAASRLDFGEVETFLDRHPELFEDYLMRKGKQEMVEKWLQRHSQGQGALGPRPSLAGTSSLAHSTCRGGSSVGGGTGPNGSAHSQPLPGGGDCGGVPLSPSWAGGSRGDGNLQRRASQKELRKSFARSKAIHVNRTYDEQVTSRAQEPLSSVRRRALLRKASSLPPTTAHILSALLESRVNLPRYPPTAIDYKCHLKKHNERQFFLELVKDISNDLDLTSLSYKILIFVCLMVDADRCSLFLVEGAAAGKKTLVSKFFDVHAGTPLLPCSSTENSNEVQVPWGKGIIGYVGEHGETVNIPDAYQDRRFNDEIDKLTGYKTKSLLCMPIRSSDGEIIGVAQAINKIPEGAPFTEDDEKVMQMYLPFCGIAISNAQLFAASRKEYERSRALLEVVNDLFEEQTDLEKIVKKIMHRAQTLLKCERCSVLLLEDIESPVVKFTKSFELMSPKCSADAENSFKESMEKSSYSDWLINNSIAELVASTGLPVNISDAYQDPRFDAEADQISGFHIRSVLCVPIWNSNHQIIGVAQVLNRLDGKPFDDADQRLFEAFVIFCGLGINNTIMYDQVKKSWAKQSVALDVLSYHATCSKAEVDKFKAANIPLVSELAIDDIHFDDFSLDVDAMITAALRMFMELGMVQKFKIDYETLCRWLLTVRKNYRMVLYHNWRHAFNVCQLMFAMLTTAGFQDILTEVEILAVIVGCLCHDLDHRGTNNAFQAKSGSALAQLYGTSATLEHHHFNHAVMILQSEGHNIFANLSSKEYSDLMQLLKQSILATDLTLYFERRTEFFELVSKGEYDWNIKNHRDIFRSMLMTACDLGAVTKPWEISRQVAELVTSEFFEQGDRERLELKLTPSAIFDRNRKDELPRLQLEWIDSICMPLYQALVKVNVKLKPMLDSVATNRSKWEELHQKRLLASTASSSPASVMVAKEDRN

Turning to `CC1(C2CCc3c(O)c4c(c(O)c3C2)C(=O)c2ccccc2C4=O)OCCO1` (stereo not drawn) [AE-508/36401018], the inhibition at 10 µM at PDE5A1 [1] is over 50%.
Regarding `COc1cc([N+](=O)[O-])cc2c1C(=O)Nc1ccccc1O2` [AG-205/40649212], at PDE5A1 [1], the inhibition at 10 µM is over 50%.
The same measure, in the same setting: under `COc1cccc2c1C(=O)c1c(O)ccc(O)c1C2=O` [AG-650/41069360] stands over 50%.
Regarding `Cc1sc(N)c2c(=O)oc3c4ccccc4ccc3c12` [AI-898/12177002], the “% inhibition at 10 μM” value is 63 on PDE11A and 79 on PDE10A. At PDE5A1 [2], this compound had an IC50 of 1600 nM.
Turning to `COc1ccc(-c2cc3[nH]nc(N)c3c(=O)[nH]2)cc1` [AR-270/43409613], the inhibition at 10 µM at PDE5A1 [1] is over 50%.
Still for that read-out and setting: the result for `COc1cccc2c1C(=O)/C(=C/c1ccc(N(C)C)cc1)C2` [AT-051/43410123] reads over 50%.
For `CCCc1nn(C)c2c(=O)[nH]c(-c3cc(S(=O)(=O)N4CCN(C)CC4)ccc3OCC)nc12` [Sildenafil], the “% inhibition at 10 nM” value on PDE5A1 [3] was over 50.
